{"source": "patent US5712109A", "about": "“Antifungal agent produced by arthrinium arundinis ATCC 74359” (Merck & Co., Inc., priority 1997, dated 1998)", "type_in_all_cases": "cell-based", "key": {"[1]": {"system": "Candida tropicalis (MY1012)", "assay": "broth microdilution antifungal assay, Candida tropicalis MY1012", "experimental": "(§1) In the microbroth dilution assay, microorganisms were selected by streaking a yeast culture on Sabouraud dextrose agar (SDA) and incubating for 24-48 hours at 35°-37° C. Three to five characteristic colonies were selected and transferred to a fresh plate and incubated under similar conditions. From the regrowth, 3 to 5 colonies were selected and suspended in 10 milliliters of YM broth (Difco) and incubated for 4 hours at 35°-37° C. shaking at 225 rpm. The 4 hour broth cultures were adjusted optically to 86% transmission resulting in a concentration of 1-5×10^6 cfu/ml which was further diluted 1:100 in YNBD (yeast nitrogen base with 1% dextrose) to obtain a concentration of 1-5×10^4 cfu/ml for use as inocula. […]\n(§2) The plates containing the diluted compounds were then inoculated with 75 μl/well of the appropriate microorganism and incubated for 48 hours at 35°-37° C. with MIC (minimum inhibitory concentration) determinations carded out after 24 hours of incubation (except Cryptococcus strains which are read at 48 hours). […]\n(§3) After recording M/Cs at 24 hours, the microtiter plates were shaken gently to resuspend the cells. […] For Cryptococcus neoformans, SDA plates were inoculated at 48 hours after recording MICs and incubated 48 hours before reading the MFG. […]"}, "[2]": {"system": "Candida pseudotropicalis (MY2099)", "assay": "broth microdilution antifungal assay, Candida pseudotropicalis MY2099", "conditions": "Kluyveromyces marxianus", "experimental": "as §1, §2, §3"}, "Candida albicans (CA2)": {"system": "Candida albicans (CA2)", "assay": "broth microdilution antifungal assay, Candida albicans CA2", "experimental": "as §1, §2, §3"}, "[3]": {"system": "Cryptococcus neoformans (MY2062)", "assay": "broth microdilution antifungal assay, Cryptococcus neoformans MY2062", "experimental": "(§4) In the microbroth dilution assay, microorganisms were selected by streaking a yeast culture on Sabouraud dextrose agar (SDA) and incubating for 24-48 hours at 35°-37° C. Three to five characteristic colonies were selected and transferred to a fresh plate and incubated under similar conditions. From the regrowth, 3 to 5 colonies were selected and suspended in 10 milliliters of YM broth (Difco) and incubated for 4 hours at 35°-37° C. shaking at 225 rpm. The 4 hour broth cultures were adjusted optically to 86% transmission resulting in a concentration of 1-5×10^6 cfu/ml which was further diluted 1:100 in YNBD (yeast nitrogen base with 1% dextrose) to obtain a concentration of 1-5×10^4 cfu/ml for use as inocula.\n(§5) The test compound was dissolved at 256 μg/ml in 10% DMSO and diluted 2× into the first well to achieve a concentration of 256 μg/ml at 5% DMSO in the first well. Compounds are subsequently serially diluted 2× and cell suspension is added to each well resulting in an additional 2× dilution of compound. 75 μl of said solution is delivered to each well in colunto 1 of a 96-well, U-bottomed plate. […]\nas §3"}, "[4]": {"system": "Candida tropicalis (MY1124)", "assay": "broth microdilution antifungal assay, Candida tropicalis MY1124", "experimental": "as §1, §2, §3"}, "[5]": {"system": "Candida parapsilosis (MY1010)", "assay": "broth microdilution antifungal assay, Candida parapsilosis MY1010", "conditions": "Lodderomyces parapsilosis", "experimental": "as §1, §2, §3"}, "[6]": {"system": "Aspergillus fumigatus (MY4839)", "assay": "broth microdilution antifungal assay, Aspergillus fumigatus MY4839", "experimental": "as §1, §2\n(§6) No MFC values are indicated for Aspergillus furnigatus since colony counts are unreliable with filamentous species. […] The MEC is scored macroscopically by direct observation of the plate wells after 24 hours and reflects microscopic alterations in cell morphology (Kurtz et al, AAC 1994 38:1480-1489)."}, "[7]": {"system": "Candida glabrata (MY1381)", "assay": "broth microdilution antifungal assay, Candida glabrata MY1381", "conditions": "Nakaseomyces glabratus", "experimental": "as §1, §2, §3"}, "[8]": {"system": "Cryptococcus neoformans (MY2061)", "assay": "broth microdilution antifungal assay, Cryptococcus neoformans MY2061", "experimental": "as §4, §5, §3"}, "panel of fungi": {"system": "panel of fungi", "assay": "broth microdilution antifungal assay, panel of fungi, comparison with amphotericin B", "conditions": "MIC/MFC broth microdilution assay", "experimental": "In the microbroth dilution assay, microorganisms were selected by streaking a yeast culture on Sabouraud dextrose agar (SDA) and incubating for 24-48 hours at 35°-37° C. Three to five characteristic colonies were selected and transferred to a fresh plate and incubated under similar conditions. From the regrowth, 3 to 5 colonies were selected and suspended in 10 milliliters of YM broth (Difco) and incubated for 4 hours at 35°-37° C. shaking at 225 rpm. […]\nas §2, §3, §6"}, "[9]": {"system": "Saccharomyces cerevisiae (MY2140)", "assay": "broth microdilution antifungal assay, Saccharomyces cerevisiae MY2140", "experimental": "as §1, §2, §3"}, "[10]": {"system": "Candida albicans (MY1055)", "assay": "broth microdilution antifungal assay, Candida albicans MY1055", "experimental": "as §1, §2, §3"}, "[11]": {"system": "Candida albicans (CLY539)", "assay": "broth microdilution antifungal assay, Candida albicans CLY539", "experimental": "as §1, §2, §3"}, "[12]": {"system": "Aspergillus fumigatus (MY5668)", "assay": "broth microdilution antifungal assay, Aspergillus fumigatus MY5668", "experimental": "as §1, §2, §6"}, "filamentous fungi": {"system": "filamentous fungi", "assay": "agar plate inhibition zone test against filamentous fungi", "conditions": "agar plates, 28° C. or 37° C., 24 hours", "experimental": "The compound is also useful for inhibiting the growth of filamentous fungi. Such use may be illustrated in the following tests with Aspergillus flavus, Fusarium oxysporum, Ustilago zeae and the like. Inocula for filamentous fungi are prepared by scraping the surface of stock plates maintained on potato dextrose agar with a moistened sterile dacron swab. The spores and mycelia are then suspended in 10 milliliters of sterile potato dextrose broth and adjusted to 70 percent transmission at 660 nm. The samples to be tested for production of antifungal agent are applied directly to the agar plates as methanol solutions. When the sample to be tested is crude broth, it may be centrifuged prior to application. The assay plates are then incubated at either 28° C. or 37° C. for 24 hours. Following incubation, the inhibition zones are measured. Effects on growth are also noted as to appearance."}, "[13]": {"system": "Candida guillermondii (MY1019)", "assay": "broth microdilution antifungal assay, Candida guillermondii MY1019", "experimental": "as §1, §2, §3"}, "Candida krusei": {"system": "Candida krusei", "assay": "broth microdilution antifungal assay, Candida krusei", "conditions": "Pichia kudriavzevii", "experimental": "as §1, §2, §3"}, "[14]": {"conditions": "24 hours, 35°-37° C., read-out: Minimum Inhibitory Concentration (MIC)"}, "[15]": {"conditions": "no growth or growth of ≤4 colonies on SDA, read-out: Minimum Fungicidal Concentration (MFC)"}, "[16]": {"conditions": "SDA incubated 48 hours, no growth or growth of ≤4 colonies, read-out: Minimum Fungicidal Concentration (MFC)"}, "[17]": {"conditions": "read at 48 hours, 35°-37° C., read-out: Minimum Inhibitory Concentration (MIC)"}, "[18]": {"conditions": "severe morphological change, scored macroscopically after 24 hours, read-out: Minimum Effective Concentration (MEC)"}}}
{"smiles": "CC(CCC(O)C(C)(O)CO)C1(O)CCC2(C)C3=C(CCC21C)C1(C)CCC(OC(=O)CCC(=O)O)C(C)(C)C1CC3", "note": "(centres unmarked) [Compound I]", "values": [{"measurement": "MIC", "setting": "[1]; [14]", "value": 16, "unit": "µg/mL"}, {"measurement": "MFC", "setting": "[1]; [15]", "value": 16, "unit": "µg/mL"}, {"measurement": "MIC", "setting": "[2]; [14]", "value": 8, "unit": "µg/mL"}, {"measurement": "MFC", "setting": "[2]; [15]", "value": 8, "unit": "µg/mL"}, {"measurement": "MIC", "setting": "Candida albicans (CA2); [14]", "value": 16, "unit": "µg/mL"}, {"measurement": "MFC", "setting": "Candida albicans (CA2); [15]", "value": 16, "unit": "µg/mL"}, {"measurement": "MFC", "setting": "[3]; [16]", "value": 64, "unit": "µg/mL"}, {"measurement": "MIC", "setting": "[3]; [17]", "value": 32, "unit": "µg/mL"}, {"measurement": "MIC", "setting": "[4]; [14]", "value": 8, "unit": "µg/mL"}, {"measurement": "MFC", "setting": "[4]; [15]", "value": 8, "unit": "µg/mL"}, {"measurement": "MIC", "setting": "[5]; [14]", "value": 4, "unit": "µg/mL"}, {"measurement": "MFC", "setting": "[5]; [15]", "value": 2, "unit": "µg/mL"}, {"measurement": "MIC", "setting": "[6]; [14]", "value": "> 64", "unit": "µg/mL"}, {"measurement": "minimal effective concentration", "setting": "[6]; [18]", "value": 0.5, "unit": "µg/mL"}, {"measurement": "MIC", "setting": "[7]; [14]", "value": 2, "unit": "µg/mL"}, {"measurement": "MFC", "setting": "[7]; [15]", "value": 1, "unit": "µg/mL"}, {"measurement": "MFC", "setting": "[8]; [16]", "value": 32, "unit": "µg/mL"}, {"measurement": "MIC", "setting": "[8]; [17]", "value": "> 64", "unit": "µg/mL"}, {"measurement": "effectiveness against a panel of fungi relative to amphotericin B", "setting": "panel of fungi", "value": "at concentrations comparable to an established antifungal agent, amphotericin B"}, {"measurement": "MIC", "setting": "[9]; [14]", "value": 8, "unit": "µg/mL"}, {"measurement": "MFC", "setting": "[9]; [15]", "value": 8, "unit": "µg/mL"}, {"measurement": "MIC", "setting": "[10]; [14]", "value": 4, "unit": "µg/mL"}, {"measurement": "MFC", "setting": "[10]; [15]", "value": 4, "unit": "µg/mL"}, {"measurement": "MIC", "setting": "[11]; [14]", "value": 2, "unit": "µg/mL"}, {"measurement": "MFC", "setting": "[11]; [15]", "value": 2, "unit": "µg/mL"}, {"measurement": "MIC", "setting": "[12]; [14]", "value": 64, "unit": "µg/mL"}, {"measurement": "minimal effective concentration", "setting": "[12]; [18]", "value": 1, "unit": "µg/mL"}, {"measurement": "inhibition of growth of the fungal organisms (inhibition zones)", "setting": "filamentous fungi", "value": "effectively inhibit growth of the fungal organisms"}, {"measurement": "MIC", "setting": "[13]; [14]", "value": 64, "unit": "µg/mL"}, {"measurement": "MFC", "setting": "[13]; [15]", "value": 64, "unit": "µg/mL"}, {"measurement": "MIC", "setting": "Candida krusei; [14]", "value": 4, "unit": "µg/mL"}, {"measurement": "MFC", "setting": "Candida krusei; [15]", "value": 2, "unit": "µg/mL"}]}
